According to article PMC5505244, “Crystal structure of a family 6 cellobiohydrolase from the basidiomycete Phanerochaete chrysosporium” (Acta Crystallographica. Section F, Structural Biology …, 2017):

Tests used:
PcCel6A [1] = target: T1, PcCel6A (Phanerodontia chrysosporium, UniProt Q02321); experiment: hydrolysis in crystal soak, inferred from bound product in X-ray structure; type: biochemical; conditions: pH 5.0, 10 h soak; intact compound not seen in the structure
T1 construct: gene cbhII; catalytic domain only; N-terminal CBM and linker (residues 1-81) deleted; pPICZalpha vector, secreted from Pichia pastoris; about 37 kDa; nonglycosylated in crystal; model residues 82-439; one molecule in asymmetric unit

PcCel6A [2] = target: T1, PcCel6A; experiment: X-ray crystal structure, […] Å; type: binding; conditions: crystal soaked with pNPG3 for 10 h, pH 5.0; active site, subsites +1 and +2; loops closed; putative Tris at subsite -1

T1 sequence (Q02321 entry or part of it): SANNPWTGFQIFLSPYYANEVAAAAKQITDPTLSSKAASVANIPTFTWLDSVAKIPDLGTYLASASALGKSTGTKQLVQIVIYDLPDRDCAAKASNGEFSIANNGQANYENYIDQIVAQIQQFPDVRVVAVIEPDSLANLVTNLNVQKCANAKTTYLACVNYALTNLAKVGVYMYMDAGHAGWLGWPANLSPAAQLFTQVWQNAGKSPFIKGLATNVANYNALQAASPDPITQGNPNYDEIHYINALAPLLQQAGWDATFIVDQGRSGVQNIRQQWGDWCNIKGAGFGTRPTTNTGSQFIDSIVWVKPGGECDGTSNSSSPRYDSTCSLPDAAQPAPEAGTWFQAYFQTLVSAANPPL

For `O=[N+]([O-])c1ccc(O[C@@H]2O[C@H](CO)[C@@H](O[C@@H]3O[C@H](CO)[C@@H](O[C@@H]4O[C@H](CO)[C@@H](O)[C@H](O)[C@H]4O)[C@H](O)[C@H]3O)[C@H](O)[C@H]2O)cc1` [p-nitrophenyl β-D-cellotrioside], the “hydrolysis in crystal soak, inferred from bound product in X-ray structure” value (PcCel6A [1]) was “The observed α-cellobiose is considered to be a product of the hydrolysis of pNPG3”.
For `OC[C@H]1O[C@@H](O[C@H]2[C@H](O)[C@@H](O)[C@@H](O)O[C@@H]2CO)[C@H](O)[C@@H](O)[C@@H]1O` [α-cellobiose], the “X-ray crystal structure, 2.1 Å” value (PcCel6A [2]) was “The ligand-bound structure obtained from the pNPG3-soaked crystal contained one α-cellobiose molecule”.
